Results from PMC10818380, “Triphenylphosphonium Analogs of Short Peptide Related to Bactenecin 7 and Oncocin 112 as Antimicrobial Agents” (Pharmaceutics, 2024).
Read-outs that look alike come from different tables or passages of the source. Peptide text beside a SMILES is read from it. * marks the point of attachment. X3 = O=C(CCCCCCCCCC[P+](c1ccccc1)(c1ccccc1)c1ccccc1)*

Legend:
[1] = tested on: B. subtilis 168; assay: microbe, parasite or virus in culture; assay type: cell-based; conditions: B. subtilis 168, 37 °C, 18 h
Procedure: (§1) The MIC values for Bac(1–10), Bac(1–10, R/Y), Bac(1–10, R/Y)-Cn-TPP, TPP-C10-Bac(1–10, R/Y), and Onc112 were determined via LB broth microdilution, as recommended by CLSI in the Methods for Dilution Antimicrobial Susceptibility Tests for Bacteria that Grow Aerobically, Approved Standard, 9th ed., CLSI document M07-A9, using in-house-prepared panels. The compounds were diluted in a 96-well microtiter plate to final concentrations ranging from 0.1 to 100 µM in a 200 µL aliquot of the bacterial suspension, followed by incubation at 37 °C for 18 h. The cell concentration was estimated according to the absorbance (A600). The measurements were performed with a VICTOR X5 Multilabel Plate Reader (PerkinElmer, Waltham, MA, USA). The following bacterial strains were used: E. coli BW25113, E. coli JW0368 ΔsbmA, B. subtilis 168, and B. subtilis CFR [39].

[2] = tested on: B. subtilis CFR; assay: microbe, parasite or virus in culture; assay type: cell-based; conditions: 18 h
Procedure: as §1

[3] = tested on: E. coli BW25113; assay: microbe, parasite or virus in culture; assay type: cell-based; conditions: E. coli BW25113, 37 °C, 18 h
Procedure: as §1

[4] = tested on: E. coli JW0368 ΔsbmA; assay: microbe, parasite or virus in culture; assay type: cell-based; conditions: for MIC: E. coli ∆sbmA, 37 °C, 18 h; for comparison of MIC values, E. coli ΔsbmA versus wild type: MIC values of Table 1
Procedure: as §1

[5] = tested on: HEK293T; assay: cells; assay type: cell-based, human; conditions: 72 h
Procedure: (§2) The cytotoxicity of the substances under study was tested using the MTT (3-(4,5-dimethylthiazol-2-yl)-2,5-diphenyltetrazolium bromide) assay with some modifications. The detailed procedure for the MTT assay is given in the Supplementary Materials (Section S5).
(§3) Two thousand five hundred cells per well for the MCF7, HEK293T, and A549 cell lines or 4000 cells per well for the VA13 cell line were plated in 135 µL of DMEM-F12 media with 10% FBS (both Gibco, Waltham, MA, USA) in a 96-well plate and were incubated in a 5% CO2 incubator for the first 16 h, without treatment. Then 15 µL of media-DMSO solutions of the tested substances were added to the cells (the final DMSO concentrations in the media were 1% or less), and the cells were treated for 72 h with 25 nM–50 µM (eight dilutions) of the tested substances (triplicate each). Serial dilutions of DMSO and doxorubicin were used as controls. The MTT reagent (Paneco LLC, Moscow, Russia) was then added to the cells at a final concentration of 0.5 g/L (10× stock solution in PBS was used) and incubated for 2.5 h at 37 °C in the incubator under an atmosphere of 5%
(§4) CO2. The MTT solution was then discarded, and 140 µL of DMSO (PharmaMed LLC, Krasnodar, Russia) was added. The plates were swayed on a shaker (60 rpm) to dissolve the formazan. The absorbance was measured using the VICTOR X5 Multilabel Plate Reader (PerkinElmer, Wa l th a m, MA, USA) at a wavelength of 565 nm (in order to measure formazan concentration). The resu l ts were used to construct a dose-response graph and to estimate IC50 values.
(§5) Figure S11.The dependencies of viability of cells after treatment by tested compounds.
(§6) (1 picture or pasted object on this page, not shown here)

[6] = tested on: MCF7; assay: cells; assay type: cell-based, human
Procedure: as §2, §3, §4, §5, §6

[7] = tested on: VA13; assay: cells; assay type: cell-based, human
Procedure: as §2, §3, §4, §5, §6

[8] = tested on: A549; assay: cells
Procedure: as §2, §3, §4, §5, §6

[9] = tested on: E. coli JW5503 (∆tolC) (KanS) pDualrep2; assay: pDualrep2 double-reporter agar plate test; assay type: cell-based; conditions: 1 µL of 10 mM solution on agar plate
Procedure: The “pDualrep2” system was used to evaluate the mechanism of the antimicrobial action of the synthesized compounds. This system is based on the hypersensitive strain E. coli JW5503 (∆tolC) (KanS) transformed with the “pDualrep2” plasmid, which allows one to sort out suppressors of protein synthesis or SOS response inducers. Briefly, 1 µL of 10 mM water solutions of Bac(1–10), Bac(1–10, R/Y), Bac(1–10, R/Y)-Cn-TPP, TPP-C10-Bac(1–10, R/Y), and Onc112 were applied onto the agar plate that already contained a layer of the reporter strain E. coli JW5503 (∆tolC) (KanS) pDualrep2, and then the plate was incubated overnight at 37 °C. The agar plate was scanned using the ChemiDoc^TM Imaging System (Bio-Rad Laboratories, Hercules, CA, USA), containing two channels, “Cy3-blot” (553/574 nm; green pseudocolor) for Turbo Red Fluorescent Protein (TurboRFP) detection and “Cy5-blot” (588/633 nm; red pseudocolor) for Katushka2S fluorescence. […] Levofloxacin (LEV; 50 μg/mL, 1 μL) and erythromycin (ERY; 5 mg/mL, 1 μL) were utilized as positive controls for DNA and protein synthesis inhibitors, respectively.

[10] = tested on: 70S E. coli ribosome; assay: Competition-binding assay, displacement of BODIPY-Bac(1–10), fluorescence anisotropy; conditions: CI (α = 0.05), read-out: apparent dissociation constant (KD)
Procedure: 70S ribosomes were isolated from E. coli MRE600 cells according to a published procedure. The binding of BODIPY-Bac(1–10) to 70S E. coli ribosomes was performed according to the following procedure. BODIPY-Bac(1–10) (16 nM) was incubated with ribosomes (from 0.5 nM to 2000 nM) for 2 h at 26 °C in a buffer containing 20 mM of HEPES-KOH (pH 7.5), 50 mM of NH4Cl, 10 mM of Mg(CH3COO)2, 4 mM of β-mercaptoethanol, and 0.05% Tween-20. The binding affinities of peptides 1 and 2, their TPP analogs 3–5, as well as the control compounds for the E. coli ribosome were analyzed via a competition-binding assay using fluorescently labeled BODIPY-Bac(1–10) or BODIPY-ERY, as described before in [38, 54]. The fluorescent compound (16 nM) was mixed with ribosomes (84 nM for BODIPY-Bac(1–10) and 46 nM for BODIPY-ERY) in the buffer. Solutions of the tested compounds were added to the obtained complexes to final concentrations ranging from 0.01 to 100 µM. The mixtures were incubated for 2 h at 26 °C, and then the values of fluorescence anisotropy were measured with a VICTOR X5 Multilabel Plate Reader (PerkinElmer, Waltham, MA, USA) using a 384-well plate. The excitation wavelength was 485 nm, and the emission wavelength was 535 nm. From the data obtained, apparent dissociation constants were calculated.

[11] = tested on: bacterial translation (E. coli S30 extract); assay: In vitro translation inhibition of firefly luciferase mRNA, E. coli S30 extract; assay type: biochemical; conditions: 30 µM
Procedure: Briefly, in vitro-transcribed firefly luciferase mRNA (fluc) was translated using the E. coli S30 Extract System for Linear Templates (Promega, Madison, WI, USA). Reaction mixtures (with a 5 μL total volume) supplemented with 0.1 mM of a mixture of all canonical amino acids, 4 U of RiboLock RNase Inhibitor (Thermo Fisher Scientific, Waltham, MA, USA), and 0.1 mM of D-luciferin (Sigma-Aldrich, Burlington, MA, USA) were pre-incubated at RT for 5 min after the addition of the tested compounds at a final concentration of 30 µM. Then, 50 ng of the mRNA was added to each reaction tube, and the mixtures were immediately subjected to continuous chemiluminescence measurements using the VICTOR X5 Multilabel Plate Reader (PerkinElmer, Waltham, MA, USA) at 37 °C for 30 min. The maximal rates of the firefly luciferase (Fluc) accumulation were calculated using the OriginPro 7.5 software. The values were normalized to a positive control (0.3% DMSO, assigned a value of 100%).

[12] = tested on: B. subtilis; assay: Membrane potential with fluorescent probe diS-C3-(5); assay type: cell-based; conditions: 2.5 µM, diS-C3-(5) fluorescence
Procedure: The membrane potential of B. subtilis was assessed by measuring the fluorescence emitted by the potential-dependent probe, diS-C3-(5). Bacterial cells derived from the overnight culture of B. subtilis were inoculated into a fresh LB medium and allowed to grow for 24 h until reaching an optical density of 0.8 at 600 nm. Subsequently, the bacteria were subjected to a 20-fold dilution in a buffer comprising 100 mM of KCl and 10 mM of Tris, adjusted to a pH of 7.4. Fluorescence measurements were conducted at 670 nm (with excitation at 630 nm) using a Fluorat-02-Panorama fluorimeter manufactured by Lumex Instruments in St. Petersburg, Russia.

[13] = B. subtilis-CFR (chloramphenicol-resistant), 37 °C
[14] = HEK293T, MTT, read-out: IC50 (50% inhibition of viability of cells)
[15] = MCF7, 72 h, MTT, read-out: IC50 (50% inhibition of viability of cells)
[16] = VA13, 72 h, MTT, read-out: IC50 (50% inhibition of viability of cells)
[17] = read-out: IC50 (50% inhibition of viability of cells), A549, 72 h, MTT

Row | SMILES | MIC [1] [µM] | MIC [2, 13] [µM] | MIC [3] [µM] | MIC [4] [µM] | IC50 [5, 14] [µM] | IC50 [6, 15] [µM] | IC50 [7, 16] [µM] | IC50 [8, 17] [µM] | inhibitory effect on growth of bacterial cells [9] | reporter induction (Katushka2S red pseudocolor = protein synthesis inhibition) [9] | comparison of MIC values, E. coli ΔsbmA versus wild type [4] | Kd [10] [µM] | inhibition of bacterial translation of firefly luciferase (Fluc) mRNA [11] | MIC ([2]; CFR) [µM] | effect on membrane potential of B. subtilis [12] | IC50 [5] [µM] | IC50 ([6]; 72 h) [µM] | IC50 ([7]; 72 h) [µM] | IC50 ([8]; 72 h) [µM]
1 | CCCC[P+](c1ccccc1)(c1ccccc1)c1ccccc1 [C4-TPP, reference compound] | >100 | >100 | >100 | >100 | 2.9 ± 0.5 | 8 ± 2 | 11 ± 2 | 6.2 ± 0.9 | – | – | – | – | – | – | – | – | – | – | –
2 | CCCCCCCCCC[P+](c1ccccc1)(c1ccccc1)c1ccccc1 [C10-TPP, reference compound] | 1.6 | 0.8 | 50 | 50 | < 0.16 | 0.25 ± 0.07 | < 0.16 | < 0.16 | caused a large growth inhibition zone | did not induce the reporters | the same | – | – | – | – | – | – | – | –
3 | CC[C@H](C)[C@H](NC(=O)[C@H](CCCNC(=N)N)NC(=O)[C@H](CCCNC(=N)N)NC(=O)CCCCCCCCCC[P+](c1ccccc1)(c1ccccc1)c1ccccc1)C(=O)N[C@@H](CCCNC(=N)N)C(=O)N1CCC[C@H]1C(=O)N[C@@H](CCCNC(=N)N)C(=O)N1CCC[C@H]1C(=O)N1CCC[C@H]1C(=O)N[C@@H](Cc1ccc(O)cc1)C(=O)N[C@@H](CC(C)C)C(=O)O [Compound 5, TPP-C10-Bac(1–10, R/Y)] (X3-RRIRPRPPYL-OH) | 12.5 | – | 5.3 | 5.3 | – | – | – | – | demonstrated an inhibitory effect on the growth of bacterial cells | – | the same | 0.16 ± 0.02 | weakly inhibited | 12.5 | decrease in the membrane potential, to a somewhat lesser extent | 36 ± 4 | > 20 | > 50 | > 50
